Patent US20200333357A1, “NOVEL TFEB PATHWAY AGONISTS FOR METABOLIC DISEASES AND AGEING” (The Board of Regents of the University of Texas System, priority 2017, published 2020)
Where a name gives a salt, the structure may show the parent alone.

Assays:
[1] = tested on: mTORC1; experiment: TSC2 dependence of mTORC1 inhibition and TFEB activation in p53-/- and p53-/-, TSC2-/- MEFs; format: cell-based, mouse; conditions: p53-/- vs p53-/-
[2] = tested on: HepG2 cells; experiment: Oleic acid-induced lipid accumulation (oil red O staining); conditions: 1 mM oleic acid; 370 nM DG, 3.3 μM AD and IKA
[3] = tested on: HeLa cells; experiment: Fura-2 Ca2+ imaging; format: cell-based, human; conditions: exposure at ~TFEB EC90
Protocol: HeLa cells treated with compounds or DMSO for 4 hr were loaded with Fura-2-AM (3 μM) in cell culture medium for 60 min at 37° C. Cells were washed twice then incubated in fresh medium for 30 min to allow complete de-esterification of intracellular AM esters. Imaging was performed at 37° C. with 5% CO2 on an epifluorescent microscope (Deltavision, Applied Precision) equipped with a digital monochrome Coolsnap HQ2 camera (Roper Scientific, Tucson, Ariz.). Fluorescence images were collected using SoftWoRx v3.4.5 (Universal Imaging, Downingtown, Pa.). Data were recorded at excitation/emission wavelengths of 340/510 nm (Fura-340 filter) and 387/510 nm (Fura-380 filter). The single band pass excitation filter for Fura-340 and Fura-380 is 26 nm and 11 nm, respectively, and the band pass of emission filters for Fura-340 and Fura-380 is 84 nm. Intracellular calibration of Fura-2 was accomplished by manipulating the Ca^2+ levels inside cells using the ionphore ionomycin (20 μM, Sigma-Aldrich) and by incubating cells in buffers with various Ca^2+ concentrations (calcium calibration buffer kit—Invitrogen). Intracellular fluorescence ratios were determined using ImageJ software. Images were background-corrected by subtracting the mean pixel values of a cell-free region near the region of interest. Fluorescent intensity ratio R=F340/F380, and Ca^2+ concentration can be calculated from Equation 3, where Kd can be obtained from intracellular calibration:
[Ca^2+]Kd×F380,min/F380,max×(R−Rmin)/(Rmax−R) (3)

[4] = tested on: HeLa cells; experiment: Cellular ROS level (CellROX Green); format: cell-based, human; conditions: 4 hrs
Source text: SFIGS. 5A-I. Small-molecule activators of TFEB engage different sources of Ca. (SFIG. 5A) HeLa cells were pretreated with or without N-acetyl-cysteine (NAC) for 1 hr and then treated with tert-butyl hydroperoxide (TBHP) or AD for 4 hrs. TBHP and NAC were used as positive and negative controls. A ROS-sensitive DNA dye CellROX Green was used to detect cellular ROS levels after these treatments. Endogenous TFEB localization was also shown. (SFIG. 5B) Quantification of the fluorescent intensity of CellROX Green in cells treated as in a was done by a plate reader. (SFIG. 5C) Quantification of endogenous TFEB nuclear translocation in SFIG. 5A. (SFIG. 5D) Cells were pretreated with or without 25 μM IP3R inhibitor Xestosporine C (Xesto) for 1 hr and then treated with DG, AD and IKA for indicated time. Quantification of TFEB translocation was shown in SFIG. 5E-G (graphs represent mean±s.d. **p<0.01, ***p<0.001, ****p<0.0001). (SFIG. 5H-I) RNA-interference were used to knock down inositol […] receptor type 1 (IP3R1) in GFP-TFEB cells before they were treated with DG, AD and IKA. siLONRF1 was used as a negative control. TFEB translocation percentage was quantified from images as shown in SFIG. 5I (mean±s.d. for n=3 independent experiments, ****p<0.0001). Scale bar, 20 μm.

[5] = tested on: mice under fed and fast conditions; experiment: Short-term starvation and chloroquine-induced acute hepatic lipid accumulation in mice; format: in vivo, mouse
Protocol: SFIGS. […] (SFIG. 6A) The body weight (left y-axis, solid symbols) and food intake (right y-axis, open symbols) measured in normal-diet-fed mice treated with vehicle or 2.5 mg/kg DG. (SFIG. 6B) Drug release curves of AD (upper panel) and IKA (lower panel) in PBS. […] (SFIG. 6F) Cells were treated with various doses DG, AD and IKA for 4 hours, and cell viability was measured immediately or after 72 hours. Dose response curves were simulated using ImageJ. (SFIG. 6G) H&E staining of heart, spleen and kidney sections from mice treated with DG, AD, IKA and their corresponding controls. Scale bar, 100 μm. (SFIG. 6H) H&E staining of liver and heart sections as well as ORO and p62/SQSTM1 IHC staining of liver sections from mice under fed and fast conditions with orally injected DG and intraperitoneally injected CQ, individually and jointly, or their corresponding control (Saline). Scale bar, 50 μm. (SFIG. 6I) The body weight of mice after the treatment described in SFIG. 6H. (SFIGS. 6J-L) Total serum levels of triglyceride, cholesterol and glucose of mice after the treatment described in SFIG. 6G.

[6] = Body weight of normal-diet-fed (lean) mice; format: in vivo, mouse; conditions: 2.5 mg/kg DG
[7] = tested on: HLH-30; experiment: HLH-30::GFP nuclear localization assay; format: in vivo, C. elegans; conditions: dal-1(dt2300); sqIs19 worms, 5 μM IKA
Protocol: Adult TX1941 dal-1(dt2300); sqIs19 [hlh-30p::hlh-30::GFP rol-6(+)] worms were placed on NGM plates with either a test chemical or 5% DMSO. GFP was scored at various intervals on live worms without mounting using a Zeiss Axio Zoom. V16 fluorescence dissecting microscope equipped with Axiocam 503. No difference was observed between 2 hour and overnight treatment.

[8] = tested on: C. elegans; experiment: C. elegans lifespan analysis; format: in vivo; conditions: for Lifespan increase (%): vs DMSO
Protocol: The C. elegans mutant strain, fem-1(hc17ts) IV; dal-1(dt2300), obtained from the Caenorhabditis Genetics Center at the University of Minnesota, was cultured on Nematode Growth Medium (NGM) plates seeded with the E. coli strain OP50 and consistently maintained at 15° C. For lifespan assays, a total of 12 age-synchronized nematode adults were transferred to eight replicate NGM plates and grown at 25° C. to ensure sterility. Age synchronization was achieved through standard hypochlorite treatments. Eggs were placed on NGM plates supplemented with Streptomycin (100 μg ml-1) and seeded with the E. coli strain, OP50. For compound testing, 200 μl of 10 μM Ikarugamycin in 5% DMSO was spotted directly onto OP50 seeded NGM plates. Control plates were prepared by spotting 200 μl of 5% DMSO directly onto OP50 seeded NGM plates. For the first 10 days of adulthood, C. elegans were scored once a day as dead or alive by touch stimulation with a platinum wire. After day 10, animals were scored every other day. Nematodes which crawling off the agar plates were censored from subsequent lifespan analysis. Kaplan-Meier statistical analysis was performed using Prism 7 software. Lifespan experiments were done on two separate occasions.

| Structure (SMILES) | dependence of mTORC1 inhibition / TFEB activation on TSC2 [1] | oleic acid-induced lipid accumulation in human hepatocytes [2] | cytosolic calcium (Fura-2) [3] | ROS production [4] | p62/SQSTM1 accumulation in liver ([5]; fast, CQ, DG oral) | fast-induced hepatic lipid accumulation ([5]; overnight fast, CQ intraperitoneal, DG oral co-administration) | body weight of lean mice [6] | nuclear accumulation of GFP-tagged HLH30 within intestinal cells in adults [7] | lifespan of fem-1(−);dal-1(−) animals ([8]; 5 μM IKA vs DMSO) | 75th % ([8]; 1st experiment) [days] | Mean Lifespan ± s.e.m ([8]; 1st experiment) [days] | Median lifespan ([8]; 1st experiment) [days] | Lifespan increase (%) ([8]; 1st experiment) | Mean Lifespan ± s.e.m ([8]; 2nd experiment) [days] | Median lifespan ([8]; 2nd experiment) [days] | Lifespan increase (%) ([8]; 2nd experiment) |
| --- | --- | --- | --- | --- | --- | --- | --- | --- | --- | --- | --- | --- | --- | --- | --- | --- |
| CCCCC(CC)CNC(=N)NC(=N)NCCCCCCNC(=N)NC(=N)NCC(CC)CCCC (centres unmarked) [AD, alexidine dihydrochloride] | TSC2-dependent | significantly ameliorated | induce accumulation of cytosolic calcium | comparable ROS production |  |  |  |  |  |  |  |  |  |  |  |  |
| C[C@H]1O[C@@H](O[C@H]2[C@@H](O)C[C@H](O[C@H]3[C@@H](O)C[C@H](O[C@H]4CC[C@@]5(C)[C@H](CC[C@@H]6[C@@H]5C[C@@H](O)[C@]5(C)[C@@H](C7=CC(=O)OC7)CC[C@]65O)C4)O[C@@H]3C)O[C@@H]2C)C[C@H](O)[C@@H]1O [DG, digoxin, reference compound] |  | significantly ameliorated | induce accumulation of cytosolic calcium |  | reduction | improved | did not alter |  |  |  |  |  |  |  |  |  |
| CC[C@H]1[C@@H]2C=C[C@@H]3[C@H]4C/C=C\C(=O)NCCC[C@@H]5NC(=O)/C(=C(O)/C=C/[C@@H]4C[C@@H]3[C@H]2C[C@H]1C)C5=O [IKA, ikarugamycin] | TSC2-dependent |  | induce accumulation of cytosolic calcium |  |  |  |  | induce nuclear accumulation | significantly extended | 16 | 21.8 ± 0.6 | 22 | 22.2 | 23.0 ± 0.5 | 24 | 22.3 |
